Where a SMILES comes first, the peptide text is derived from it. Where no end group is shown, it is not given here. [ ]: non-standard residue; d: D form.
Experiments:
[1] = target: T1, TF-1 cells (Homo sapiens, UniProt P14778+Q9NPH3); assay: IL-1ß-induced TF-1 proliferation; format: cell-based; conditions: Table 5; for Emax: TF-1
T1 sequence (P14778 18-569): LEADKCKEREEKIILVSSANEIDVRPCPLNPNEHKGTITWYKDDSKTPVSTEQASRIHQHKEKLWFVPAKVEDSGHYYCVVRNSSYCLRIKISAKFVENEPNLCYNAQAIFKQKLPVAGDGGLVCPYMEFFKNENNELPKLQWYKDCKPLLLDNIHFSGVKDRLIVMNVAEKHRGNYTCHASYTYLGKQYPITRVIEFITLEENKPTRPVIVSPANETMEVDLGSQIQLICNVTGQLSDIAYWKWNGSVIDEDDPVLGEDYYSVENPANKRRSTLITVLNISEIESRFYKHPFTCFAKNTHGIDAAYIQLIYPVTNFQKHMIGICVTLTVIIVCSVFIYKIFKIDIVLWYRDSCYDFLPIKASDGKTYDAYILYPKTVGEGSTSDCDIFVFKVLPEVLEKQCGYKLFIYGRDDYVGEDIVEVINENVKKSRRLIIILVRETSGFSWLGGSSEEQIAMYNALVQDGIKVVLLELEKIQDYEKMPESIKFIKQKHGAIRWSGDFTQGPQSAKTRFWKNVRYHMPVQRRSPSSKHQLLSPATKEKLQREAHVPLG
T1 sequence (Q9NPH3 21-570): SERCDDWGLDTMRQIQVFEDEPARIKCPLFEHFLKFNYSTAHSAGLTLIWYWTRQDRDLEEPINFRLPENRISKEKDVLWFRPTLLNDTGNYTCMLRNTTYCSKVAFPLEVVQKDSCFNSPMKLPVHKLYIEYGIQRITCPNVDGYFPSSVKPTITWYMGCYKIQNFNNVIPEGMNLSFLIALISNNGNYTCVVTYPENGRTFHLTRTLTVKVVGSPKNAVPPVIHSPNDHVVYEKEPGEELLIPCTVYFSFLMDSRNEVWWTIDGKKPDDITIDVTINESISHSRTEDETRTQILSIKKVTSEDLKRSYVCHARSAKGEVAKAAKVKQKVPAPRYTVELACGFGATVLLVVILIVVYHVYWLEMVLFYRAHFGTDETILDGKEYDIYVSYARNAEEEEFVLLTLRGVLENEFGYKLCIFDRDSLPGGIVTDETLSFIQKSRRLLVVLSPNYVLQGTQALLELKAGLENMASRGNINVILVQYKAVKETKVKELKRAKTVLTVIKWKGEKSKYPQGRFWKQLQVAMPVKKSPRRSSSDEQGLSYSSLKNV

[2] = system: rats; assay: TNBS-induced inflammatory bowel disease model in rats, 48 h: MPO activity, macroscopic score, histologic score (Table 3: 1 no injury to 5 marked denudation); format: in vivo
Description: Colon inflammation was induced by intra-rectal/colon administration of the hapten trinitrobenzene sulphonic acid (TNBS) as described in Example 4. Two hours prior to TNBS administration, peptides, peptidomimetics or 0.9% saline were administered intravenously (iv) via the caudal vein (various concentrations of mg/kg/d) (total volume of 0.3ml). […] A third group (control) was not injected with TNBS. For intermittent administration, fifteen minutes after TNBS administration, 101.10 (0.25-1 mg/kg), 101.107 (0.2 mg/kg), 101.113 (0.05-1 mg/kg) were administered by intermittent intraperitoneal injection (ip). Also, these IL-1R antagonists were given twice a day (BID); Remicade® (anti-TNFα) (10 mg/kg) and dexamethasone (0.75 mg/kg) were administered intraperitoneally but only once a day (qd). The intrarectal administration (ir) of 101.10, 101.113 (1 and 2.5 mg/kg), and 5-ASA (50 mg/kg) was done one hour after TNBS administration, and twice a day, except for 5-ASA which is once a day. Finally, 101.10 (1-5 mg/kg) was also administered orally by gavage (po), twice a day. Forty-eight hours after administration of TNBS, rats were killed by CO2 inhalation. Colon was removed and assessed macroscopically (adhesions, ulcerations, discoloration and bleeding) and histologically (neutrophil infiltration, epithelial injury, crypt distortion and ulcerations). One to seven animals per group were studied, according to treatments. Myeloperoxidase (MPO) activity was measured on tissue lysates.
TABLE 3: Histological Injury Scoring System

[3] = system: piglet pial vessels; set-up: species or system Yorkshire piglets
Description: Ex vivo vasomotor response on brain vessels was performed as described (Li et al., 1996; Hou et al., 2000; Hou et al., 2001; Hou et al., 2003). Brains were removed from Yorkshire piglets. Slices of cortex exposing the pial vessels were pinned to a wax base of a 20 ml bath containing Krebs buffer (pH 7.4) equilibrated with 95% O2, 5% CO2 and maintained at 37°C. Microvessels were visualized and recorded using a video camera mounted on a dissecting microscope. Vascular diameter was measured using a digital image analyzer. Vascular diameter was recorded before and after topical application of pre-constricting agent, U46619 (10^-7 M). After stabilization of preparation, the ligand (IL-1β, 75 ng/ml) was added until stable vasodilation was detected. Peptides were subsequently added at different concentrations from 10^-10 to 10^-5 M. Reversal of vasodilatation was visualized and measured as previously described (Hou, et al. 2000; Hou et al. 2001; Hou et al. 2003); triplicate measurements were conducted on 2 animals.

[4] = system: IL-1 ß-induced proliferation and PGE2 synthesis; assay: Structure vs activity summary of Table 4 (proliferation and PGE2 synthesis, not separated); format: cell-based; conditions: Table 4, derivatives of TTI-101.107
[5] = intrarectal administration, dose 50.0-qd mg/kg/d
[6] = intermittent injection (ip), dose 0.75 - qd mg/kg/d

With `CC(C)C[C@@H](NC(=O)[C@@H](CCC(=O)O)NC(=O)[C@H]1CCCN1C(=O)[C@H](NC(=O)[C@@H](Cc1ccccc1)NC(=O)[C@H](N)CCCNC(=N)N)[C@H](C)O)C(N)=O` [API-101.132, RFTPEL] (HELM PEPTIDE1{[dR].[dF].[dT].[dP].[dE].[dL].[am]}$$$$V2.0; N-terminus and C-terminus assumed) the Emax [1] was 35% and the “activity compared with 101.113, in words” value [1] was “relatively decreased”.

With XYTPEL (X=Ornithine) [API-101.126] the “Emax (%)” value [1] was 0% and the “activity compared with 101.113, in words” value [1] was “little or no activity”.

`CC(C)C[C@@H](NC(=O)[C@@H](CCC(=O)O)NC(=O)[C@H]1CCCN1C(=O)[C@H](NC(=O)[C@@H](Cc1ccc(O)cc1)NC(=O)[C@H](N)CCCNC(=N)N)[C@H](C)O)C(=O)O` [API-101.113, RYTPEL] was tested, and the Emax [1] was 70%.

In the case of `CC(C)C[C@@H](NC(=O)[C@@H](CCC(=O)O)NC(=O)[C@H]1CCCN1C(=O)[C@H](NC(=O)[C@@H](Cc1c[nH]c2ccccc12)NC(=O)[C@H](N)CCCNC(=N)N)[C@H](C)O)C(N)=O` [API-101.128, RWTPEL], the “activity compared with 101.113, in words” value [1] is reported as “relatively decreased”.

In the case of `CC(C)[C@@H](NC(=O)[C@@H](CCC(=O)O)NC(=O)[C@H]1CCCN1C(=O)[C@H](NC(=O)[C@@H](Cc1ccc(O)cc1)NC(=O)[C@H](N)CCCNC(=N)N)[C@H](C)O)C(N)=O` [API-101.129, RYTPEV], the Emax [1] is reported as 50%.

In the case of KYTPEL [API-101.133], the “Emax (%)” value [1] is reported as <10% and the “activity compared with 101.113, in words” value [1] is reported as “little or no activity”.

For `Nc1ccc(O)c(C(=O)O)c1` [5-ASA], the “MPO (% of TNBS+Saline)” value [2, 5] was 49 % of TNBS+Saline, the “histologic evaluation (median score)” value [2, 5] was 3.3 and the “macroscopic (median score)” value [2, 5] was 1.5.

For `CC(C)C[C@@H](NC(=O)[C@@H](CCC(=O)O)NC(=O)[C@H](NC(=O)[C@H](NC(=O)[C@@H](Cc1ccc(O)cc1)NC(=O)[C@@H](CCCNC(=N)N)NC(=O)[C@H]1CCCN1C(=O)[C@@H](C)N)[C@H](C)O)C(C)C)C(=O)N[C@H](C)C(=O)O` [API-101], the IC50 [3] was 182 nM.

`CC(C)C[C@@H](NC(=O)[C@@H](CCC(=O)O)NC(=O)[C@H]1CCCN1C(=O)[C@H](NC(=O)[C@@H](Cc1ccc(O)cc1)NC(=O)[C@@H](N)CCCNC(=N)N)[C@H](C)O)C(N)=O` [API-101.135, *RYTPEL] was tested, and the Emax [1] was 63%.

`C[C@@H]1C[C@H]2[C@@H]3CCC4=CC(=O)C=C[C@]4(C)[C@@]3(F)[C@@H](O)C[C@]2(C)[C@@]1(O)C(=O)CO` [Dexamethasone, dexamethasone] was tested, and the “MPO (% of TNBS+Saline)” value [2, 6] was 60 % of TNBS+Saline, the “histologic evaluation (median score)” value [2, 6] was 3 and the “macroscopic (median score)” value [2, 6] was 0.87.

“XRYTPELA (X=Acetyl) (Ac-[dR][dY][dT][dP][dE][dL][dA]) [API-101.121]” was tested, and the “activity of the peptide, in words” value [4] was “completely lost”.

RFVPELA [API-101.127] was tested, and the “activity compared with 101.113, in words” value [1] was “completely abolished the activity”.

Molecule `CC(C)C[C@@H](NC(=O)[C@@H](CCC(=O)O)NC(=O)[C@H]1CCCN1C(=O)[C@H](NC(=O)[C@@H](Cc1ccc(O)cc1)NC(=O)[C@H](N)CCCNC(N)=O)[C@H](C)O)C(N)=O` [API-101.134, XYTPEL (X=Citrulline)] has an Emax [1] of 10%.

From patent EP1751175B1, “INTERLEUKIN-1 RECEPTOR ANTAGONISTS, COMPOSITIONS, AND METHODS OF TREATMENT” (VALORISATION-RECHERCHE, Société en Commandite, priority 2004, dated 2005)
